According to patent publication US20160228056A1, “DYNAMIC POSITRON EMISSION TOMOGRAPHY IMAGING” (THE GENERAL HOSPITAL CORPORATION, priority 2013, published 2016):
“Also recorded” adds a separate entry of the source.

Legend:
glucose utilization = experiment: fPET-FDG constant infusion with checkerboard visual stimulation; format: in vivo, human; settings: for mean percent increase in glucose utilization derived from fPET-FDG: fixed-effect group analysis, three subjects
Experimental: To interrogate dynamic metabolic information, a 90-minute constant FDG infusion paradigm was used (0.01 ml/s, 5 mCi total calculated to the beginning of infusion), during which we periodically presented a conventional visual stimulus consisting of an 8-Hz counterphase flickering “checkerboard” pattern as shown in FIG. 2A. The stimulus was projected on a screen mounted at the end of the magnet bore, and subjects (n=3) viewed the stimulus through a mirror. We used three different stimuli: two full-field checkerboard stimulus periods for a duration of 10 minutes each, and two hemi-field checkerboard stimulus periods (right and left) for a duration of 5 minutes each (FIG. 2A). This design allowed us to confirm that the observed metabolic signal changes were specific to the stimuli, and also that multiple stimuli (four in this case) can be measured dynamically during a single scan of a single subject. In addition to our dynamic analysis, the fPET-FDG data were also binned into 90 one-minute frames using previously published methods (see, Catana et al., J Nucl Med 51, 1431, September, 2010; and Catana et al., J Nucl Med 52, 154, January 2011). During the fPET-FDG scan, functional MR data were simultaneously collected using a Siemens BrainPET scanner. BOLD data were collected prior to and during the first 10 minute full-field checkerboard and the two hemi-field checkerboard stimuli; and ASL data were collected prior to and during the second 10 minute full-field checkerboard stimulus.
FDG was delivered at a constant rate during our fPET studies. At steady state, the rate of FDG utilization in a given voxel is proportional to the slope of the radioactivity accumulated in that voxel. As shown in Example 1 below, during steady state the slope of the voxelwise FDG uptake from fPET can be represented as: slope=(CMRglu*LC*Cp)/Ca^o where LC is the lumped constant which converts FDG metabolic rate to glucose metabolic rate, Ca^o is a measurement of plasma glucose (see, Reivich et al., Circ Res 44, 127, January 1979; and Phelps et al., Ann Neurol 6, 371, November 1979), and Cp is the plasma radioactivity concentration (which is controlled through constant infusion). The slope is an approximation for (K1k3)/(k2+k3) scaled by Cp and is thus analogous to Ki (the influx rate constant) determined by a linear approximation of a bolus FDG injection by Patlak analysis (see, Patlak et al., J Cereb Blood Flow Metab 3, 1, Mar. 1983; and Lucignani et al., J Nucl Med 34, 360, March 1993). Changes in slope are thus proportional to changes in CMRglu. By taking the derivative of the fPET-FDG uptake time course estimated using pairwise subtraction of the 90 one minute frames to form a relative index of uptake rate, we generated a time series akin to a BOLD fMRI signal to represent change in CMRglu. We then used fMRI software, FSL's (FMRIB Software Library) FEAT (see Jenkinson et al., Neuroimage 62, 782, Aug. 15, 2012) to process the fPET-FDG data using a generalized linear model (GLM) with 3 different explanatory variables (EV): (i) 2 blocks of the 10 minutes full-field checkerboard paradigm (EV1), (ii) a 5 minute block of left hemi-field checkerboard (EV2) and (iii) a 5 minute block of right hemi-field checkerboard (EV3). Confirmation of functional specificity is inherent in our analyses given that both hemispheres of the visual system respond equally to the full-field checkerboard whereas the contralateral hemisphere has a higher response to a hemi-field checkerboard. […]

[1] = blood radioactivity during the FDG infusion protocol; format: in vivo, human; settings: constant infusion
Experimental: FDG was administered in saline intravenously at a constant infusion rate of 0.01 ml/s for 90 minutes to healthy subjects (1 female/2 males, mean age 32±2) using a Medrad® Spectra Solaris syringe pump. In a separate experiment, FDG was administered as a traditional bolus injection (5 mCi administered in 5 mL saline over ˜30 seconds) during rest for 3 additional healthy subjects (1 female/2 males, mean age 29±3). Venous blood samples were collected in all subjects during scanning, then centrifuged to obtain plasma, and aliquoted in a gamma counter that had been precalibrated to the PET scanner to measure the venous activity during the experiment. The fPET-FDG data were binned into 90 one-minute frames. The reconstructed volume was down-sampled to 76 slices with 128×128 voxels (2.5×2.5×2.5 mm^3) with one minute time frames. For bolus FDG comparison studies, data were processed as a single frame (40-70 minutes post injection) and analogously down-sampled. Standardized Uptake Values (SUVs) were normalized to gray matter uptake for each subject.
FDG in saline solution was administered intravenously at a constant infusion rate of 0.01 ml/s for 90 min to healthy subjects (1 female/2 males, mean age 32±2 years) using a Medrad® Spectra Solaris syringe pump (initial activity=5±0.6 mCi). […]

[2] = cited from earlier work; for K1 (rate constant, transport from blood to brain) / k2 (rate constant, transport back from brain to blood) / k3 (rate constant, phosphorylation in the brain tissue): two-tissue compartment model (Reivich et al., 1985)
cerebral blood flow = experiment: non-human primate hypercapnia experiment with fPET-FDG and ASL CBF; format: in vivo, baboon
Source text: To assess the influence of cerebral blood flow changes on FDG signal we administered inhaled carbon dioxide, a strong vasodilatory stimulus, to two baboons (2 females, ˜10-12 kg) simultaneously with fPET-FDG and arterial spin labeling (ASL) MRI for CBF measurements. The protocol was approved by the Institutional Animal Care and Use Committee. Animals were anesthetized with isoflurane (1%) and mechanically ventilated. Physiological parameters were continuously monitored and maintained within the normal range. All images were acquired on the same 3T Siemens TIM-Trio with a BrainPET insert as the human data, using a custom PET-compatible 8-channel array coil. Similar to the human protocol, ˜5 mCi of FDG was continuously infused intravenously at a rate of 0.01 mL/sec for each study. PET data were stored in list mode and binned into 1-minute frames. Dual echo pseudo-continuous arterial spin labeling (pCASL) data were acquired simultaneously (TR/TE1/TE2=4000/12/30 ms, 2.2×2.2×4 mm) (Wey et al., 2010). During a 50 minute dynamic fPET/fMRI scan, a hypercapnic challenge (7% CO2) was given for 10 minutes between 30 and 40 minutes. All data were motion and slice-time corrected, skull stripped, spatially smoothed and registered to a standard NHP atlas. Percent changes in gray matter CBF were calculated.

[3] = 10 minute full checkerboard, average of 3 subjects, exponential fit

Row | Compound | tau of the exponential decrease in FDG signal after the end of the activation (glucose utilization; [3]) | tau of the exponential increase in FDG signal after the beginning of the activation (glucose utilization; [3]) | mean percent increase in glucose utilization derived from fPET-FDG (glucose utilization; full-field checkerboard vs baseline) | mean percent increase in glucose utilization derived from fPET-FDG (glucose utilization; left hemi-field checkerboard vs baseline) | mean percent increase in glucose utilization derived from fPET-FDG (glucose utilization; right hemi-field checkerboard vs baseline) | blood radioactivity during the infusion protocol, maximum ([1]; venous plasma blood) | blood radioactivity during the infusion protocol, average ([1]; whole blood) | extraction fraction ([2]; brain) | K1 (rate constant, transport from blood to brain) [2] | k2 (rate constant, transport back from brain to blood) [2] | k3 (rate constant, phosphorylation in the brain tissue) [2] | CBF increase on average (cerebral blood flow; gray matter, ASL, 10 minutes of hypercapnia (7% CO2), anesthetized baboon) | effect on FDG uptake rate / FDG signal slope (cerebral blood flow; hypercapnia (7% CO2) between 30 and 40 minutes of 50 minute FDG infusion, baboon) | CBF change at maximum (cerebral blood flow; hypercapnia stimulus (7% CO2), baboon)
1 | 2-[^18F]-fluoro-2-deoxyglucose [FDG] | 5.6 min | 4.9 min | 25% | 26% | 28% | 4 kBq/cc | 4 kBq/cc | 4% | 0.1 mL/min | 0.15 min⁻¹ | 0.08 min⁻¹ |  |  | 
2 | O=C=O [carbon dioxide] |  |  |  |  |  |  |  |  |  |  |  | 70% | did not alter FDG uptake rate; also recorded: did not induce any measurable change | 120%
3 | OCC1OC(O)CC(O)C1O (centres unmarked) [deoxyglucose] |  |  |  |  |  |  |  |  | ~0.1 mL/min | ~0.15 min⁻¹ | ~0.08 min⁻¹ |  |  | 
